Experimental data from US20180055049A1, “USE OF PRO-[…] UK-2A FOR CONTROL OF BROWN ROT DIESEASE ON STONE AND POME FRUITS” (Dow AgroSciences LLC, priority 2016, published 2018).

Legend:
Format in all cases: in vivo
[1] = tested on: Monilinia spp. (MONILA); assay: Field trial 2: brown rot of flowers and branches, peaches, southern France; details: for % Incidence, Branches: Trial 2, branches, 22 DAA, untreated 30.60; for % Incidence, Flowers: Trial 2, flowers, 8 DAA, untreated 55.30
Procedure: (§1) A fungicidal treatment containing Compound I for use against brown rot diseases on stone fruits was carried out in three field trials. The first two trials were carried out in Italy and France in order to investigate the effectiveness of Compound 1 against brown rot of flowers. These two trials were designed as randomized complete block with four replications (plots respectively of 35 and 50 m^2) and were carried out in typical areas for apricot and peaches cultivation, respectively, in northeastern Italy and southern France. Trials were conducted under EPPO PP1/38(2), PP1/135(3), PP1/152(3), PP1/181(3), PP1/239(1) and related guidelines. Trials were sprayed three times during the flowering period, using a backpack mist blower equipment calibrated to apply product respectively at 600 and 700 L/ha of water volume. […] MONILA disease was evaluated on flowers on a sample of ten pre-marked branches per tree, aged one year. The number of infected flowers was counted and consequently the percent incidence was then calculated. A second assessment was then made on 50 small branches randomly selected in the two 2 central trees for each plot, counting the number of diseased small branches and then the % incidence was calculated.

[2] = tested on: Monilinia spp. (MONILA); assay: Field trial 1: brown rot of flowers and branches, apricot, northeastern Italy; details: for % Incidence, Branches: Trial 1, branches, 24 DAA, untreated 23.50; for % Incidence, Flowers: Trial 1, flowers, 8 DAA, untreated 21.00
Procedure: as §1

[3] = tested on: Monilinia fructicola (MONIFC); assay: Field trial 3: brown rot of fruits, peach, Ravenna, northeastern Italy; details: Trial 3, fruits, 200 g ai/Ha
Procedure: A third trial was conducted in Italy in order to investigate the effectiveness of Compound I against brown rot of fruits. This trial was designed as randomized complete block with four replications and plots of 49.5 m^2 and was carried out in a typical area for peach cultivation in the province of Ravenna in northeastern Italy. The trial was conducted under EPPO PP1/222(1), PP1/135(2), PP1/152(3), PP1/181(3), PP1/225(1), PP1/239(1) and related guidelines. Products were sprayed twice during fruit ripening respectively at BBCH 79-81 and 81-85 of plant grow stage using a self-propelled air-assisted multi plot sprayer designed for efficacy trials with four independent series of 8 nozzles (Albutz, ATR 80 Yellow) calibrated to apply a spray volume of 1,000 L/ha at a pressure of 450 KPa according to the orchard canopy.
The pathogen was certificated to be Monilinia fructicola (MONIFC) by means of an immunoassay followed by a PCR assay on material collected (mummies) from the trial. The brown rot damage at harvest was evaluated on l00 randomly picked fruits per plot. Visual healthy samples of 60 fruits per plot were placed in alveolus plates and kept for 5 days in cold storage. Afterwards the samples were maintained for 14 days at about 20° C. (shelf life period). Several assessments were made in order to check the development of disease during the shelf life simulation. […]

COc1ccnc(C(=O)N[C@H]2COC(=O)[C@H](Cc3ccccc3)[C@@H](OC(=O)C(C)C)[C@H](C)OC2=O)c1OCOC(=O)C(C)C [Compound I]
% Incidence, Branches ([1]; 75 g ai/Ha): 11.98%
% Incidence, Branches ([1]; 100 g ai/Ha): 9.93%
% Incidence, Branches ([1]; 150 g ai/Ha): 4.20%
% Incidence, Flowers ([1]; 75 g ai/Ha): 24.00%
% Incidence, Flowers ([1]; 100 g ai/Ha): 16.70%
% Incidence, Flowers ([1]; 150 g ai/Ha): 15.40%
% Incidence, Branches ([2]; 75 g ai/Ha): 22.50%
% Incidence, Branches ([2]; 100 g ai/Ha): 24.50%
% Incidence, Branches ([2]; 150 g ai/Ha): 11.00%
% Incidence, Flowers ([2]; 75 g ai/Ha): 11.25%
% Incidence, Flowers ([2]; 100 g ai/Ha): 4.75%
% Incidence, Flowers ([2]; 150 g ai/Ha): 3.25%
% Incidence, Fruits ([3]; 7 DAA, untreated 31.3): 15.0%
% Incidence, Fruits ([3]; 26 DAA, untreated 32.5): 16.8%
